Values quoted from earlier work, collected in US20080044815A1, “Genetic Screen for Interaction Interface Mapping” (priority 2003, published 2008).

Assays:
embryonic neurons = details: Borasio et al. 1998
neurons = details: Saporito et al. 1999
[1] = tested on: nerve growth factor (NGF)-deprived neurons; details: Harris et al. 2002

In the case of `CCSCc1ccc2c(c1)c1c3c(c4c5cc(CSCC)ccc5n5c4c1n2[C@H]1C[C@](O)(C(=O)OC)[C@]5(C)O1)CNC3=O` [CEP-1347], the “survival of embryonic neurons” value (embryonic neurons) is given as “support the survival of embryonic neurons”, the “loss of neurons in vivo” value (neurons) is given as “attenuate the loss of neurons in vivo” and the “metabolism and growth of NGF-deprived neurons” value [1] is given as “preserve the metabolism and growth”.
